Measured values reported in patent US5795857A, “Mimetic insect pyrokinin analogs for insect control” (The United States of America as represented by the …, priority 1996, dated 1998).
“Also recorded” adds a separate entry of the source.

Key:
[1] = tested on: isolated cockroach (Leucophaea maderae) hindgut; assay: Cockroach myotropic bioassay (isolated hindgut); assay type: cell-based
Method: Leucophaea maderae cockroaches were taken from stock colonies maintained at 27° C. and fed dry dog food ad lib. Cockroach hindguts, free of central nervous system (CNS) tissue, were dissected, immersed in saline, and prepared for recording of myogenic activity as previously described (Holman et al., 1991, ibid). Threshold concentrations were determined for each analogue by adding a known quantity of peptide (dissolved in 0.5 ml bioassay saline) to the bioassay chamber containing the hindgut and observing the response on a Gould 2200S oscillograph recorder. The quantity of the peptide analogues was calculated from the values obtained for Phe and/or Leu in the amino acid analysis. The threshold concentration was defined as the minimum concentration of peptide in the chamber required to evoke an observable change in the frequency (50%) or amplitude of contractions (5%) within 1 min and sustained for 3 min. Threshold concentrations were obtained from five cockroach hindguts on 5 consecutive days for each peptide. Quantitative data for dose-response plots were obtained as previously described (Holman et al., 1991, ibid).

[2] = tested on: virgin females of Heliothis virescens; assay: Pheromonotropic assay (injection); assay type: in vivo
Method: Pupae of H. virescens were obtained from a laboratory colony maintained at the Insect Attractants, Behavior and Basic Biology Research Laboratory, USDA-ARS, in Gainesville, Fla. The pupae were separated by sex and the males were discarded. After eclosion, the females were held in 4-1 cages and provided with cotton wicks soaked with 5% sucrose solution. The insects were held at 25°±2° C, 65±3% relative humidity with a 12:12 (L:D) photoperiod. Virgin females were used for bioassays 2 and 3 days after eclosion during the 7th-8th hour of the photophase when endogenous levels of pheromone are very low (Abernathy, 1995, Regulation of sex pheromone production and oviposition in virgin females of noctuid moths, doctoral dissertation, University of Florida, Gainesville, Fla., pp. 1-107).
Pheromone biosynthesis neuropeptide from H. zea (Hez--PBAN) and the carboranyl pseudopeptide Cbe--Thr--Pro--Arg--Leu--NH2 were dissolved in physiological saline (Christensen et al., 1991, Proc. Natl. Acad. Sci. USA, 88:4971-4975). Female H. virescens insects were injected through the side of the third abdominal segment using a 26-ga needle with 20 μl of the above solutions. Each female received a dose of 0.01, 0.03, 0.1, 0.3, 1, 3, 10, 30, 100 or 300 pmol. After 1 h of incubation, the terminal abdominal segments, which contain the pheromone gland, were excised and placed in 10 μl of hexane containing 10 ng each of internal standards (octadecane and nonadecane) used for quantitation and calculation of relative retention indices. The pheromone gland extracts were analyzed for the amount of (Z)-11-hexadecenal (Z11-16:AL), the major sex pheromone component of H. virescens (Klun et al., 1980, J. Chem. Ecol., 6:165-175) by capillary gas chromatography. Hewlett-Packard 5890 gas chromatographs were equipped with splitless injectors, flame ionization detectors, and 30 m×0.25 mm (i.d.) fused silica "SPB 10" (polar) or "SPB1" (apolar) columns (Supelco). Conditions of chromatography were as follows: initial temperature=60° C.; injector operated in the splitless mode for 0.5 min; oven temperature increased by 30° C./min after 1 min; final temperature=190° C. ("SPB10") or 200° C. ("SPB1"); helium carrier gas at a linear flow velocity of 18 cm/s. A Nelson Analytical 3000° acquisition system (Cupertino, Calif.) was used to collect and analyze the data (Teal et al., 1989, Proc. Natl. Acad. Sci. USA, 86:2488-2492).
After the dose response of Hez--PBAN was completed, the […] dose was chosen to use for comparison with the carboranyl pseudopeptide assayed here. Insects were also injected with saline alone as a control. The pseudopeptide was prepared by dilution with saline as described above. Based on the dose-response for the activity of Hez--PBAN, […] were chosen to assess the pheromonotropic activity of the carboranyl pseudopeptide. Females were injected with 20 μl containing 0.01, 0.03, 0.1, 0.3, 1, 3, 10, 30, 100, or 300 pmol. Each bioassay consisted of one dose of several different peptides along with saline and Hez--PBAN controls. The amount of pheromone present in extracts of the pheromone glands of females from each group was compared with that produced by females injected with 5 pmol of Hez--PBAN during that particular bioassay. After all the bioassays were completed, the amount of pheromone produced by each insect was calculated as a percentage of the amount of pheromone produced by females treated with Hez--PBAN. Data were analyzed using one-way ANOVA and t-test with "STATVIEW" software. Variability was reported as SEM.
The pheromonotropic activity of Hez--PBAN, Lom--MT--II and [6--Pha--Ala^0 ]Lom--MT--II was first determined by a series of injection bioassays. Peptides were dissolved in physiological saline (Christensen et al., ibid) and diluted to concentrations of 0.003, 0.01, 0.03, 0.1, 0.3, 1.0, 3.0 and 10.0 pmol/μl. Insects were injected through the side of the 3rd abdominal segment using a 26 ga. needle with 20 μl of the above solutions. […]

[3] = tested on: fleshfly larvae; assay: Acceleration of pupariation after injection into fleshfly larvae; assay type: in vivo, Sarcophaga bullata; settings: injected into fleshfly larvae
[4] = isolated hindgut, FIG. 2, listed as carboranyl pseudotetrapeptide

Question: How did the “potency relative to the 8-mer LPK” value ([1]; hindgut threshold concentration) turn out when Cbe--Thr--Pro--Arg--Leu--NH2 was run?
Answer: 10 X

Question: And the “reversibility of myostimulatory response by saline rinse” value ([1]; isolated hindgut, FIG. 2, listed as carboranyl analog)?
Answer: could not be reversed even following repeated saline rinses; also recorded: cannot be reversed even following repeated saline rinses

Question: What about the “period over which myostimulatory activity subsides after rinse” value [1, 4] of the same substance?
Answer: about 20 minutes

Question: And the “reversibility of myostimulatory response by saline rinse” value [1, 4]?
Answer: cannot be reversed by one or more saline rinses

Question: What about the “Threshold Concentration, myostimulation of the isolated cockroach hindgut” value ([1]; minimum concentration evoking observable change in frequency (50%) or amplitude (5%) of contractions) of the same substance?
Answer: 70 pM

Question: What about the “potency relative to 33-membered HezPBAN, injection” value ([2]; H. virescens) of the same substance?
Answer: 10 fold

Question: And the “ED50, pheromone production following injection” value ([2]; H. virescens females, FIG. 3)?
Answer: 0.1 pmoles/female

Question: And the “ED50, pheromone production via injection” value ([2]; H. virescens females, glands extracted 60 min after injection)?
Answer: 0.1 pmol

Question: What about the “dose eliciting a 100% response, injection” value ([2]; H. virescens, FIG. 3) of the same substance?
Answer: 2.5 pmoles/female

Question: What about the “potency relative to 33-membered HezPBAN, injection” value ([2]; H. virescens, listed as carboranyl analog) of the same substance?
Answer: equipotent

Question: What about the “Maximal Response via injection (dose)” value ([2]; maximal pheromone production relative to 5 pmoles PBAN via injection) of the same substance?
Answer: 2.5 pmol

Question: And the concentration accelerating pupariation [3]?
Answer: ≤ 0.25 picomoles/insect
